This is an account of results in patent US20260092071A1, “COMPOUNDS AND COMPOSITIONS AS SMARCA2/4 DEGRADERS AND USES THEREOF” (REGENTS OF THE UNIVERSITY OF MICHIGAN, priority 2022, published 2026).

A value given as a limit tells only on which side of the number the result lay.

One assay has as its target SMARCA2 (Homo sapiens, UniProt P51531). The assay is described as follows: HiBit assay in engineered HT1080 CRISPR knock-in cell, 6 hrs (B series), SMARCA2. The format is cell-based. The settings on record: 6 hrs incubation; for DC50: HT1080 CRISPR knock-in cells, read-out: SMARC A2 HT1080 HiBit DC50; for Dmax: HT-1080, HT1080 CRISPR knock-in cells, read-out: SMARC A2 HT1080 HiBit Dmax (%). The method in brief: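 Engineered HT1080 knock-in cells, 2000 cells/well, 6 hrs compound exposure, 37° C/5% CO2, 0.1% DMSO final. Lytic detection: LgBiT 1:100 plus HiBiT substrate 1:50 in lytic buffer, 10 min shake at RT, luminescence read.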

The next assay concerns the target SMARCA4 (Homo sapiens, UniProt P51532). The assay is described as follows: HiBit assay in engineered HT1080 CRISPR knock-in cell, 6 hrs (B series), SMARCA4. The format is cell-based. The settings on record: 6 hrs incubation; for DC50: HT1080 CRISPR knock-in cells, read-out: SMARC A4 HT1080 HiBit DC50; for Dmax: HT-1080, HT1080 CRISPR knock-in cells, read-out: SMARC A4 HT1080 HiBit Dmax(%). The method in brief: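 HT1080 CRISPR knock-in cells carrying the HiBiT tag were seeded onto compounds (final DMSO 0.1%) and incubated 6 hrs at 37° C, 5% CO2. Remaining tagged protein was detected by lytic HiBiT luminescence after adding LgBiT protein and substrate, with LgBiT-free wells serving as negative control.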

Chain of SMARCA2 (P51531 whole entry): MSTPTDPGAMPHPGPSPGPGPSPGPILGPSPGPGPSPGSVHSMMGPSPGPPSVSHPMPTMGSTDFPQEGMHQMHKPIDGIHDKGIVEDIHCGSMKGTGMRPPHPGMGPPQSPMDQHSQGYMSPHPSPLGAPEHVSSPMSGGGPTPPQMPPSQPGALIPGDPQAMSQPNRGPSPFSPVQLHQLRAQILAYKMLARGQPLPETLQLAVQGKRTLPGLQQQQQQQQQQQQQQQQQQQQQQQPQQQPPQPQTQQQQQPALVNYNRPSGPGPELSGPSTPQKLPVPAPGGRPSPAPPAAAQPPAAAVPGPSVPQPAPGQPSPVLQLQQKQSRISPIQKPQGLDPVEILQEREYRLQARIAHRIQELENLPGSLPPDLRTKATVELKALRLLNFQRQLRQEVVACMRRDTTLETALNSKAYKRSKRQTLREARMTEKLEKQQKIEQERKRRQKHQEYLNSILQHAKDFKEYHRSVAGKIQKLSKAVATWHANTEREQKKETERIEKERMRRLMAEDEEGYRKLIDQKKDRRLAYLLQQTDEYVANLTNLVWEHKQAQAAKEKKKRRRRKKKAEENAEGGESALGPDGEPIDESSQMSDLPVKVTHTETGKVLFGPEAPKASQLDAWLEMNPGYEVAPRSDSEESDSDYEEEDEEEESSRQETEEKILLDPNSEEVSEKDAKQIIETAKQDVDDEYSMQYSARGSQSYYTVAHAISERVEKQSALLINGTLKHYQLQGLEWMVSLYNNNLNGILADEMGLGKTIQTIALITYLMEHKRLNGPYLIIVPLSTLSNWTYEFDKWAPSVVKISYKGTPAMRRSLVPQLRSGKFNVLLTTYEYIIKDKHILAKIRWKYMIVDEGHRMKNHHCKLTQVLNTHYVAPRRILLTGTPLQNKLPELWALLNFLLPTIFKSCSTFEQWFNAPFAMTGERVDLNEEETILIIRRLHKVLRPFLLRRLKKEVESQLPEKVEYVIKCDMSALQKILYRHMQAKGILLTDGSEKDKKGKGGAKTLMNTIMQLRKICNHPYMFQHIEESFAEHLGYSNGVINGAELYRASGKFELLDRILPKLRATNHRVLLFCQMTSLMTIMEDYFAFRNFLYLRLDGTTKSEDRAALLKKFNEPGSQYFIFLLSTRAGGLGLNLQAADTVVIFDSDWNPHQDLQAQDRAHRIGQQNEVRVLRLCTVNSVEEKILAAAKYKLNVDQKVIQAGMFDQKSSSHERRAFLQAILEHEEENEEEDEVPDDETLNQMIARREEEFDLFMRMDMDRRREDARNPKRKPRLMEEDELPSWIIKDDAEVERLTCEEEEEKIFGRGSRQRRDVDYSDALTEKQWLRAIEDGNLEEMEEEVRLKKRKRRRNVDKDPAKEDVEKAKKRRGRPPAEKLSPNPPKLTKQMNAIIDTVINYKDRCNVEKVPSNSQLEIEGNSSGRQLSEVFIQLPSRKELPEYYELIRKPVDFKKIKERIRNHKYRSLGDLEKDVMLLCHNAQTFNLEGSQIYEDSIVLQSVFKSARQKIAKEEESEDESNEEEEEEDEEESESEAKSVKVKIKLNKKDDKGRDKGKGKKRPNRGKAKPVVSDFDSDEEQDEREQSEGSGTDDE
Chain of SMARCA4 (P51532 whole entry): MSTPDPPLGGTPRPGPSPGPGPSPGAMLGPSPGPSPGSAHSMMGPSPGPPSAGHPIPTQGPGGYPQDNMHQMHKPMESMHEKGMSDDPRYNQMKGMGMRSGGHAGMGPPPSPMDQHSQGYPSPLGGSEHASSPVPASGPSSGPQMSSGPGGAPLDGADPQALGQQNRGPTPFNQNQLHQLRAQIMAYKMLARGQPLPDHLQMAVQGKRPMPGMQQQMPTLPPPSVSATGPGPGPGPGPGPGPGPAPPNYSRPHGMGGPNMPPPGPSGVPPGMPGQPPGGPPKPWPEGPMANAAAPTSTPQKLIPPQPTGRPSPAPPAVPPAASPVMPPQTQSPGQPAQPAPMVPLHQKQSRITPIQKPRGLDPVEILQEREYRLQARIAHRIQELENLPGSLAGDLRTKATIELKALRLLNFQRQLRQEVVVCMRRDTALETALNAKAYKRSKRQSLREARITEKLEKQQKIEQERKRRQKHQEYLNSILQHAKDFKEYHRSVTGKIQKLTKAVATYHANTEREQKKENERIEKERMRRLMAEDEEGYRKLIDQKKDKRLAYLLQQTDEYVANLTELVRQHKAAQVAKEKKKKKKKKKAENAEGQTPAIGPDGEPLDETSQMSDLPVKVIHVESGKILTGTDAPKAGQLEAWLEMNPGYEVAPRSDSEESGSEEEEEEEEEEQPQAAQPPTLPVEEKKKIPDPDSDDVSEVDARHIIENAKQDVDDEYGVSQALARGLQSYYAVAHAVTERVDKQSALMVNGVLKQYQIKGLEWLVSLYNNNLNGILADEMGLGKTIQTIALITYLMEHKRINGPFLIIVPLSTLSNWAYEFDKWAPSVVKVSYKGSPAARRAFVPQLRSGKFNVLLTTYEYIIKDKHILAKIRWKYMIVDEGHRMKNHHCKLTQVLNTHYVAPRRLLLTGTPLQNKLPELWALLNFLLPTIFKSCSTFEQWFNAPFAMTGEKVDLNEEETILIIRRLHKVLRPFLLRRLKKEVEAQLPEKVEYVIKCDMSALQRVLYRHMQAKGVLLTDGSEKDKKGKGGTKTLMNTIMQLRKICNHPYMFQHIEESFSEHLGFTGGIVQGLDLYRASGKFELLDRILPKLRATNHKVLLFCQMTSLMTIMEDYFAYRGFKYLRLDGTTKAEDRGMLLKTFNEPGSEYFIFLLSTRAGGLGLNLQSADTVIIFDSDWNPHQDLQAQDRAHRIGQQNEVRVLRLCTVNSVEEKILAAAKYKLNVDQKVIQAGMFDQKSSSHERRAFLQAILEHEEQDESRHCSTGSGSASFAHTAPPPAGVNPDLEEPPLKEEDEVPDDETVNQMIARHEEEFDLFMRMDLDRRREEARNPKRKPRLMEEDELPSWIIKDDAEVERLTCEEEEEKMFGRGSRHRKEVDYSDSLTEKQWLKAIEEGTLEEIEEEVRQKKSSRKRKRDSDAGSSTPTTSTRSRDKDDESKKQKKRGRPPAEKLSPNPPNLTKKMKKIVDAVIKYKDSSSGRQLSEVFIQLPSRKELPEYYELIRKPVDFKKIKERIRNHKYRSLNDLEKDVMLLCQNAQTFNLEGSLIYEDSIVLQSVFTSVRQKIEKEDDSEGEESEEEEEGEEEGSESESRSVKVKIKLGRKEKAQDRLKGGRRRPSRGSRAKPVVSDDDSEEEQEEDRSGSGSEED

For the molecule `Cc1ncsc1-c1ccc([C@H](C)NC(=O)[C@@H]2C[C@@H](O)CN2C(=O)[C@@H](c2cc(OCCCN3CCC(c4ccc5c(c4)-n4c(nc(=O)c6c(Cl)cccc64)C5(C)C)CC3)no2)C(C)C)cc1` [Compound B26, (2S,4R)-1-((R)-2-(3-(3-(4-(4-chloro-7,7-dimethyl-5-oxo-5,7-dihydroindolo[1,2-a]quinazolin-10-yl)piperidin-1-yl)propoxy)isoxazol-5-yl)-3-methylbutanoyl)-4-hydroxy-N-((S)-1-(4-(4-methylthiazol-5-yl)phenyl)ethyl)pyrrolidine-2-carboxamide], the DC50 on SMARCA2 and on SMARCA4 was < 100 nM each time. In addition, the Dmax on SMARCA2 and on SMARCA4 was > 90% throughout.
For the molecule `C[C@H](NC(=O)[C@@H]1C[C@@H](O)CN1C(=O)[C@@H](n1cc([C@H]2CC[C@H](CN3CCC(c4ccc5c(c4)-n4c(nc(=O)c6c(Cl)cccc64)C5(C)C)CC3)CC2)nn1)C(C)(C)C)c1ccc(-c2scnc2C#N)cc1` [Compound B141, (2S,4R)-1-((S)-2-(4-((1r,4S)-4-((4-(4-chloro-7,7-dimethyl-5-oxo-5,7-dihydroindolo[1,2-a]quinazolin-10-yl)piperidin-1-yl)methyl)cyclohexyl)-1H-1,2,3-triazol-1-yl)-3,3-dimethylbutanoyl)-N-((S)-1-(4-(4-cyanothiazol-5-yl)phenyl)ethyl)-4-hydroxypyrrolidine-2-carboxamide], the DC50 on SMARCA2 is < 100 nM; on SMARCA4, 100 to 500 nM. Moreover, the Dmax is > 90% on SMARCA2 and < 50% at SMARCA4.
The corresponding values for `Cc1ncsc1-c1ccc([C@H](C)NC(=O)[C@@H]2C[C@@H](O)CN2C(=O)[C@@H](NC(=O)C2CCC(N3CCC(c4ccc5c(c4)-n4c(nc(=O)c6c(Cl)cccc64)C5(C)C)CC3)CC2)C(C)(C)C)cc1` (stereo partly drawn) [Compound B47, (2S,4R)-1-((S)-2-(4-(4-(4-chloro-7,7-dimethyl-5-oxo-5,7-dihydroindolo[1,2-a]quinazolin-10-yl)piperidin-1-yl)cyclohexane-1-carboxamido)-3,3-dimethylbutanoyl)-4-hydroxy-N-((S)-1-(4-(4-methylthiazol-5-yl)phenyl)ethyl)pyrrolidine-2-carboxamide] are 100 to 500 nM, 100 to 500 nM, 70 to 90% and < 50%.
On the same counts, the results for `Cc1ncsc1-c1ccc([C@H](C)NC(=O)[C@@H]2C[C@@H](O)CN2C(=O)[C@@H](c2cc(OCCc3cccc4c3C(C)(C)c3nc(=O)c5c(Cl)cccc5n3-4)no2)C(C)C)cc1` [Compound B116, (2S,4R)-1-((R)-2-(3-(2-(4-chloro-7,7-dimethyl-5-oxo-5,7-dihydroindolo[1,2-a]quinazolin-8-yl)ethoxy)isoxazol-5-yl)-3-methylbutanoyl)-4-hydroxy-N—((S)-1-(4-(4-methylthiazol-5-yl)phenyl)ethyl)pyrrolidine-2-carboxamide] are < 100 nM, > 1000 nM, 70 to 90% and < 50%.
As for `Cc1ncsc1-c1ccc([C@H](CC(=O)N[C@H]2CC[C@H](CN3CCC(c4ccc5c(c4)-n4c(nc(=O)c6c(Cl)cccc64)C5(C)C)CC3)CC2)NC(=O)[C@@H]2C[C@@H](O)CN2C(=O)[C@@H](NC(=O)C2(F)CC2)C(C)(C)C)cc1` [Compound B22, (2S,4R)-N-((S)-3-(((1r,4S)-4-((4-(4-chloro-7,7-dimethyl-5-oxo-5,7-dihydroindolo[1,2-a]quinazolin-10-yl)piperidin-1-yl)methyl)cyclohexyl)amino)-1-(4-(4-methylthiazol-5-yl)phenyl)-3-oxopropyl)-1-((S)-2-(1-fluorocyclopropane-1-carboxamido)-3,3-dimethylbutanoyl)-4-hydroxypyrrolidine-2-carboxamide], the DC50 on SMARCA2 is < 100 nM; at SMARCA4, 100 to 500 nM. For the same molecule, the Dmax on SMARCA2 is > 90%; on SMARCA4, 50 to 69%.
Consider `Cc1ncsc1-c1ccc([C@H](C)NC(=O)[C@@H]2C[C@@H](O)CN2C(=O)C(c2cc(CN3CCC(c4ccc5c(c4)C(C)(C)c4nc(=O)c6c(Cl)cccc6n4-5)CC3)no2)C(C)C)cc1` (stereo partly drawn) [Compound B8, (2S,4R)-1-(2-(3-((4-(4-chloro-7,7-dimethyl-5-oxo-5,7-dihydroindolo[1,2-a]quinazolin-9-yl)piperidin-1-yl)methyl)isoxazol-5-yl)-3-methylbutanoyl)-4-hydroxy-N—((S)-1-(4-(4-methylthiazol-5-yl)phenyl)ethyl)pyrrolidine-2-carboxamide], for which the DC50 at SMARCA2 and on SMARCA4 was < 100 nM throughout. Further, the Dmax at SMARCA2 was > 90%; on SMARCA4 it was 70 to 90%.
Regarding `Cc1ncsc1-c1ccc([C@H](C)NC(=O)[C@@H]2C[C@@H](O)CN2C(=O)[C@H](C(C)C)n2cc([C@H]3CC[C@H](CN4CCN(c5ccc6c(c5)-n5c(nc(=O)c7c(Cl)cccc75)C6(C)C)CC4)CC3)nn2)cc1` [Compound B120, (2S,4R)-1-((S)-2-(4-((1r,4S)-4-((4-(4-chloro-7,7-dimethyl-5-oxo-5,7-dihydroindolo[1,2-a]quinazolin-10-yl)piperazin-1-yl)methyl)cyclohexyl)-1H-1,2,3-triazol-1-yl)-3-methylbutanoyl)-4-hydroxy-N-((S)-1-(4-(4-methylthiazol-5-yl)phenyl)ethyl)pyrrolidine-2-carboxamide], at SMARCA2, the DC50 was < 100 nM and the Dmax is > 90%. Further, on SMARCA4, the DC50 was < 100 nM and the Dmax fell in the range of 70 to 90%.
Turning to `Cc1ncsc1-c1ccc([C@H](C)NC(=O)[C@@H]2C[C@@H](O)CN2C(=O)[C@@H](c2cc(N3CCC(CN4CCN(c5ccc6c(c5)-n5c(nc(=O)c7c(Cl)cccc75)C6(C)C)CC4)CC3)no2)C(C)C)cc1` [Compound B111, (2S,4R)-1-((R)-2-(3-(4-((4-(4-chloro-7,7-dimethyl-5-oxo-5,7-dihydroindolo[1,2-a]quinazolin-10-yl)piperazin-1-yl)methyl)piperidin-1-yl)isoxazol-5-yl)-3-methylbutanoyl)-4-hydroxy-N-((S)-1-(4-(4-methylthiazol-5-yl)phenyl)ethyl)pyrrolidine-2-carboxamide], the DC50 on SMARCA2 and on SMARCA4 was < 100 nM in each case. The Dmax at SMARCA2 is > 90%; at SMARCA4, 50 to 69%.
Take `Cc1ncsc1-c1ccc([C@H](C)NC(=O)[C@@H]2C[C@@H](O)CN2C(=O)[C@@H](c2cc(OCCCN3CCC(c4ccc5c(c4)C(C)(C)c4nc(=O)c6c(Cl)cccc6n4-5)CC3)no2)C(C)C)cc1` [Compound B11, (2S,4R)-1-((R)-2-(3-(3-(4-(4-chloro-7,7-dimethyl-5-oxo-5,7-dihydroindolo[1,2-a]quinazolin-9-yl)piperidin-1-yl)propoxy)isoxazol-5-yl)-3-methylbutanoyl)-4-hydroxy-N-((S)-1-(4-(4-methylthiazol-5-yl)phenyl)ethyl)pyrrolidine-2-carboxamide]: on SMARCA2, the DC50 was < 100 nM and the Dmax was > 90%. On SMARCA4, the DC50 is < 100 nM and the Dmax was > 90%.
On to `Cc1cc(C(C(=O)N2C[C@H](O)C[C@H]2C(=O)N[C@@H](CN2CCC(c3cccc4c3C(C)(C)c3nc(=O)c5c(Cl)cccc5n3-4)CC2)c2ccc(-c3scnc3C)cc2)C(C)C)on1` (stereo partly drawn) [Compound B153, (2S,4R)-N-((R)-2-(4-(4-chloro-7,7-dimethyl-5-oxo-5,7-dihydroindolo[1,2-a]quinazolin-8-yl)piperidin-1-yl)-1-(4-(4-methylthiazol-5-yl)phenyl)ethyl)-4-hydroxy-1-(3-methyl-2-(3-methylisoxazol-5-yl)butanoyl)pyrrolidine-2-carboxamide], for which the DC50 at SMARCA2 and on SMARCA4 was < 100 nM each time. The Dmax at SMARCA2 and on SMARCA4 was 70 to 90% each time.
Turning to `Cc1ncsc1-c1ccc(C(CN2CCOCC2)NC(=O)[C@@H]2C[C@@H](O)CN2C(=O)[C@H](c2cc(N3CCC(CN4CCN(c5ccc6c(c5)-n5c(nc(=O)c7c(Cl)cccc75)C65CCCCC5)CC4)CC3)no2)C(C)C)cc1` (stereo in doubt) [Compound B160, (2S,4R)-1-((S)-2-(3-(4-((4-(4′-chloro-5′-oxo-5′H-spiro[cyclohexane-1,7′-indolo[1,2-a]quinazolin]-10′-yl)piperazin-1-yl)methyl)piperidin-1-yl)isoxazol-5-yl)-3-methylbutanoyl)-4-hydroxy-N-((S)-1-(4-(4-methylthiazol-5-yl)phenyl)-2-morpholinoethyl)pyrrolidine-2-carboxamide], the DC50 at SMARCA2 and on SMARCA4 was < 100 nM in each case. Also, the values for the Dmax on SMARCA2 and on SMARCA4 were > 90% and 50 to 69%, respectively.
As for `C[C@H](NC(=O)[C@@H]1C[C@@H](O)CN1C(=O)[C@@H](n1cc([C@H]2CC[C@H](CN3CCN(c4ccc5c(c4)-n4c(nc(=O)c6c(Cl)cccc64)C5(C)C)CC3)CC2)nn1)C(C)(C)C)c1ccc(-c2ccnn2C)cc1` [Compound B125, (2S,4R)-1-((S)-2-(4-((1r,4S)-4-((4-(4-chloro-7,7-dimethyl-5-oxo-5,7-dihydroindolo[1,2-a]quinazolin-10-yl)piperazin-1-yl)methyl)cyclohexyl)-1H-1,2,3-triazol-1-yl)-3,3-dimethylbutanoyl)-4-hydroxy-N-((S)-1-(4-(1-methyl-1H-pyrazol-5-yl)phenyl)ethyl)pyrrolidine-2-carboxamide], on SMARCA2, the DC50 is < 100 nM and the Dmax is > 90%. At SMARCA4, the DC50 is < 100 nM and the Dmax is 70 to 90%.
